Literature values, collected in patent US8623879B2, “1-heterocyclyl-1,5-dihydro-pyrazolo[3,4-D] pyrimidin-4-one derivates and their use as PDE9A modulators” (Boehringer Ingelheim International GmbH, priority 2008, dated 2014).

Key:
human PDE9A = human PDE9A (Homo sapiens, UniProt O76083); settings: concentrations of up to 100 micromolar; cited from earlier work
Murine PDE9A = target: T1, Murine PDE9A (Mus musculus, UniProt O70628); settings: concentrations below 200 micromolar; cited from earlier work
T1 sequence (O70628 1-534): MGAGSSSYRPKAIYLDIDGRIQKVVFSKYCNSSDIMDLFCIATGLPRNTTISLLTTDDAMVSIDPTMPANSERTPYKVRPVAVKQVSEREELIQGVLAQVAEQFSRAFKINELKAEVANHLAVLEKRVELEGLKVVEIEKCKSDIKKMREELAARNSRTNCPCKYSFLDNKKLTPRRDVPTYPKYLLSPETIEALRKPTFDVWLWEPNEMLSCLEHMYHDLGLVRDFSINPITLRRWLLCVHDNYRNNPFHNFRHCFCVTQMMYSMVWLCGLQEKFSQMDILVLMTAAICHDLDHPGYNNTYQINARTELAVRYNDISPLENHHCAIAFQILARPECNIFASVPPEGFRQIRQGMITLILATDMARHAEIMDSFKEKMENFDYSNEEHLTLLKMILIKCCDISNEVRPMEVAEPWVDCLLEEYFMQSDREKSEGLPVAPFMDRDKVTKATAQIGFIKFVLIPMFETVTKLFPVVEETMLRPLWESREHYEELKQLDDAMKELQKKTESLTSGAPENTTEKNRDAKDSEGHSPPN

Chain of human PDE9A (O76083 whole entry): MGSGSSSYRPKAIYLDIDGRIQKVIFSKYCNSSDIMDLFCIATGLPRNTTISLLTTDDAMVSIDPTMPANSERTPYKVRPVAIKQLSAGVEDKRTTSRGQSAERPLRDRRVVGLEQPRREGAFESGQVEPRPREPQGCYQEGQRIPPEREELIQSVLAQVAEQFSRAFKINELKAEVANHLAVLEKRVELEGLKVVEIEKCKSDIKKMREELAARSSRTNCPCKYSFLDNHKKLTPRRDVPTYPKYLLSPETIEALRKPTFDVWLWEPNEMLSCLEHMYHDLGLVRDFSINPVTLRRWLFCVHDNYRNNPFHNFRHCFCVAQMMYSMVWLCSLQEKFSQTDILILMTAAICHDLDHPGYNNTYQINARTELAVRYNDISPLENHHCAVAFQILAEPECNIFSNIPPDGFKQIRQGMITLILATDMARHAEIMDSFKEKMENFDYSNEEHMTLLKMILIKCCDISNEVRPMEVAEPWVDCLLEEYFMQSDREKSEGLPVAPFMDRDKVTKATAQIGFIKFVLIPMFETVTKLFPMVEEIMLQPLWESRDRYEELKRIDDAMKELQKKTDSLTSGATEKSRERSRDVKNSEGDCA

SMILES | inhibition on the isolated enzyme (human PDE9A) | inhibition of murine PDE9A (Murine PDE9A)
OCCN(CCO)c1nc(N2CCCCC2)c2nc(N(CCO)CCO)nc(N3CCCCC3)c2n1 [dipyridamole] | no inhibition | 
CC(C)Cn1c(=O)n(C)c(=O)c2[nH]cnc21 [IBMX] | no inhibition | not inhibited
CC(=O)Nc1ccc(-c2c[nH]c(=O)cn2)cc1 [SKF94120] | no inhibition | 
